Reference: article PMC6920980, “Encapsulation in Polymeric Nanoparticles Enhances the Enzymatic Stability and the Permeability of the GLP-1 Analog, Liraglutide, Across a Culture Model of Intestinal Permeability” (Pharmaceutics, 2019)
Each block holds one compound with its values, some of them ahead of it.

Columns and labels:
pancreatin = experiment: Enzymatic degradation study in pancreatin-containing simulated intestinal fluid SIF; assay type: in vitro ADME, porcine; conditions: SIF with pancreatin (10 g/L, USP), pH 6.8, 37 °C, 100 rpm, 500 μg Lira in 2 mL, HPLC-UV, triplicate
Experimental: Stability analysis in the presence of pepsin and pancreatin was conducted and compared between native Lira and Lira loaded in PLGA NPs. Five hundred micrograms of native Lira, or the amount of NPs containing an equivalent amount of Lira, were added to 2 mL of pepsin-containing simulated gastric fluid SGF (3.2 g pepsin, 2 g of sodium chloride, 7 mL HCl, mixed and diluted with water to 1 L, pH = 1.2) or pancreatin-containing simulated intestinal fluid SIF (10 g pancreatin, 6.8 g KH2PO4, mixed and adjusted with 0.2 N NaOH then diluted with water to 1 L, pH = 6.8) and incubated at 37 °C under stirring at a speed of 100 rpm. The SGF and SIF were prepared as per USP specifications (Test Solutions, United States Pharmacopeia 35, NF 30, 2012). The same methodology was followed to assess the native Lira stability in SGFsp and SIFsp. […] The samples were centrifuged at 16,500× g and 4 °C for 10 min and the supernatant was analyzed by HPLC to calculate the residual Lira. […] Lira recovery in the withdrawn samples was calculated using the following equation: Lira recovery% = (Remaining Lira amount/theoretical Lira amount) × 100
(§1) Lira was analyzed by a reversed phase HPLC (Agilent 1200, San Diego, CA, USA) method that was previously developed and validated in our lab. […]

[1] = tested on: Caco-2 intestinal epithelial cells; experiment: Cell viability measurement by impedance; assay type: cell-based, human; conditions: PN159 3 µM; for cell impedance kinetics: Caco-2, 24-h long treatment, liraglutide 100 µM; for cell index values measured by impedance (cell viability): Caco-2, liraglutide 100 µM, Triton X-100 1 mg/mL, in culture medium, kinetics for 24 h and 1-h time point, 10 kHz, n = 6–12
Experimental: (§2) The Caco-2 intestinal epithelial cell line was purchased from ATCC (cat.no. HTB-37) at passage 60. The cells were grown, as previously reported, in Dulbecco’s modified Eagle’s medium (Gibco, Life Technologies, Carlsbad, CA, USA) supplemented with 10% fetal bovine serum (Pan-Biotech GmbH, Aidenbach, Germany) and 50 μg/mL gentamycin in a humidified incubator with 5% CO2 at 37 °C. All plastic surfaces were coated with 0.05% rat tail collagen in sterile distilled water before cell seeding in culture dishes and the medium was changed every 2 days.
(§3) The concentration of stock solutions for cell culture experiments were 1 mM for both the therapeutic peptide liraglutide and the PN159 peptide, which was used as a reference absorption enhancer. The working solutions were diluted in cell culture medium or Ringer-buffer depending on the experiments. The final concentration of liraglutide encapsulated in the PLGA NPs was 100 µM and was diluted directly before using. Liraglutide was examined at 100 µM, while PN159 was examined at 3 µM concentration both for cell viability and permeability.
Impedance was measured at 10 kHz by an RTCA SP instrument (RTCA-SP instrument, ACEA Biosciences, San Diego, CA, USA). We have successfully tested the cellular effects of peptides and pharmaceutical excipients by impedance kinetics. For background measurements, 50 μL cell culture medium was added to the wells. This was followed by seeding the cells at a density of 6 × 10^3 cells/well to 96-well plate with gold electrodes (E-plate 96, ACEA Biosciences) coated with collagen. Cells were cultured for 5 days in a CO2 incubator at 37 °C and monitored every 10 min until the end of experiments. Cells were treated at the beginning of the plateau phase of growth. Lira, Lira-loaded PLGA NPs, blank PLGA NPs (without cargo), Lira and PN159 solution, and PN159 peptide were diluted in cell culture medium and the effects were followed for 24 h. Triton X-100 detergent (1 mg/mL) was used as a reference compound to obtain total cell toxicity. Cell index was defined as Rn-Rb at each time point of measurement, where Rn is the cell–electrode impedance of the well when it contains cells and Rb is the background impedance of the well with the medium alone.

[2] = tested on: Caco-2 epithelial cell layers; experiment: Permeability study on the Caco-2 model; assay type: in vitro ADME, human
Experimental: as §2, §3
(§4) Caco-2 cells were seeded onto Transwell inserts (polycarbonate membrane, 3 µm pore size, 1.12 cm^2 surface area; Corning Life Sciences, Tewksbury, MA, USA) and cultured for three weeks. […] Treatment solutions from both compartments were collected and the Lira level was detected by HPLC.
(§5) The apparent permeability coefficients (Papp) were calculated as described previously. […]
(§6) Recovery (mass balance) was calculated according to the equation: %Recovery=CfDV^D+CfAV^A/C0DV^D×100% where C0D and CfD are the initial and final concentrations of the compound in the donor compartment, respectively; […] is the final concentration in the acceptor compartment; and V^D and V^A are the volumes of the solutions in the donor and acceptor compartments.
as §1

[3] = Permeability study on the Caco-2 model; assay type: in vitro ADME, human; conditions: human; Caco-2 on Transwell (polycarbonate, 3 µm pore, 1.12 cm^2), 3 weeks culture, apical to basal, Ringer-buffer pH 7.4, donor 100 µM liraglutide (PN159 3 µM where present), 1 h, HPLC-UV 214 nm, mean, n = 4; read-out: apparent permeability coefficient (Papp) of liraglutide
Experimental: as §2, §3, §4, §5, §6, §1

Caco-2 epithelial cells = experiment: Immunostaining for junctional proteins ZO-1 and β-catenin; assay type: cell-based, human; conditions: Caco-2 on glass coverslips, 1 h treatment, Lira 100 µM, PN159 3 µM, confocal microscopy
Experimental: Aiming to investigate the morphological changes in interepithelial junctions, immunostaining for the junctional proteins, zonula occludens protein-1 (ZO-1) and β-catenin, was carried out. Cells were grown on glass coverslips (Menzel-Glaser, Braunschweig, Germany) at a density of 4 × 10^4 cells/coverslips for 4 days and treated with Lira (100 µM), Lira loaded in PLGA NPs, Lira and PN159 solution, and PN159 peptide (3 µM) solutions for 1 h. After the treatment, the coverslips were washed with phosphate buffer (PBS) and the cells were fixed with 3% paraformaldehyde solution for 15 min at room temperature and incubated in 0.2% TX-100 solution for permeabilization. The cells were blocked with 3% bovine serum albumin in PBS and incubated with the rabbit primary antibodies, anti-ZO-1 and anti-β-catenin, overnight. Incubation with secondary Cy3-labeled anti-rabbit antibody lasted for 1 h. Hoechst dye 33342 was used to stain the cell nuclei. After mounting the samples (Fluoromount-G; Southern Biotech, Birmingham, AL, USA), the staining was visualized by a Visitron spinning disk confocal system (Visitron Systems GmbH, Puchheim, Germany).

Lira recovery (pancreatin; 30 min incubation, mean ± SD): 9.2 ± 0.7% | Lira degradation (pancreatin; 1 h incubation): completely degraded | Recovery (%) Mean ± SD (mass balance) ([2]; after liraglutide permeability on Caco-2 cells, donor 100 µM liraglutide, Ringer-buffer pH 7.4, 1 h, HPLC, mean ± SD): 80.9 ± 1.6% | Papp A→B at 1 h, 100 µM [3]: 16 ×10⁻⁶ cm/s
Compound: CCCCCCCCCCCCCCCC(=O)N[C@@H](CCC(=O)NCCCC[C@H](NC(=O)[C@H](C)NC(=O)[C@H](C)NC(=O)[C@H](CCC(N)=O)NC(=O)CNC(=O)[C@H](CCC(=O)O)NC(=O)[C@H](CC(C)C)NC(=O)[C@H](Cc1ccc(O)cc1)NC(=O)[C@H](CO)NC(=O)[C@H](CO)NC(=O)[C@@H](NC(=O)[C@H](CC(=O)O)NC(=O)[C@H](CO)NC(=O)[C@@H](NC(=O)[C@H](Cc1ccccc1)NC(=O)[C@@H](NC(=O)CNC(=O)[C@H](CCC(=O)O)NC(=O)[C@H](C)NC(=O)[C@@H](N)Cc1cnc[nH]1)[C@@H](C)O)[C@@H](C)O)C(C)C)C(=O)N[C@@H](CCC(=O)O)C(=O)N[C@@H](Cc1ccccc1)C(=O)N[C@H](C(=O)N[C@@H](C)C(=O)N[C@@H](Cc1c[nH]c2ccccc12)C(=O)N[C@@H](CC(C)C)C(=O)N[C@H](C(=O)N[C@@H](CCCNC(=N)N)C(=O)NCC(=O)N[C@@H](CCCNC(=N)N)C(=O)NCC(=O)O)C(C)C)[C@@H](C)CC)C(=O)O [Liraglutide]
cell impedance kinetics [1]: no decrease in cell impedance kinetics | cell index values measured by impedance (cell viability) [1]: did not change the cell index values

Compound: CC(C)C[C@H](NC(=O)[C@H](C)NC(=O)[C@H](CCCCN)NC(=O)[C@H](CC(C)C)NC(=O)[C@H](C)NC(=O)[C@H](CC(C)C)NC(=O)[C@H](CCCCN)NC(=O)[C@H](CC(C)C)NC(=O)[C@H](C)NC(=O)[C@H](CC(C)C)NC(=O)[C@@H](N)CCCCN)C(=O)N[C@@H](CCCCN)C(=O)N[C@@H](C)C(=O)N[C@@H](C)C(=O)N[C@@H](CC(C)C)C(=O)N[C@@H](CCCCN)C(=O)N[C@@H](CC(C)C)C(=O)N[C@@H](C)C(N)=O [PN159 peptide]
junctional morphology (ZO-1 and β-catenin immunostaining) (Caco-2 epithelial cells): visible change in the staining pattern of β-catenin | cell impedance kinetics [1]: no decrease in cell impedance kinetics | cell index values measured by impedance (cell viability) [1]: did not change the cell index values

Papp of marker molecule ([2]; Caco-2 monolayers, TEER 893 ± 135 Ω × cm^2 before the experiments): below 0.5 × 10^−6 cm/s
Compound: O=C1OC2(c3ccc(O)cc3Oc3cc(O)ccc32)c2ccccc21 [fluorescein]

Compound: Triton X-100
cell index values measured by impedance (cell viability) [1]: impedance dropped to zero
